From patent publication US5567831A, “Non-steroidal sulfatase inhibitor compounds and their method of use” (Duguesne University of the Holy Ghost, priority 1995, dated 1996)

How the values were obtained:
[1] = target: T1, estrone sulfatase activity in intact MDA-MB-231 breast cancer cells (Homo sapiens, UniProt P08842); test: In vitro estrogen sulfatase assay on intact cell monolayers; assay type: cell-based; conditions: intact MDA-MB-231 monolayers, 18 hours at 37° C., [3H]E1S (2 nM), inhibitor 0.1 nM to 1 μM; read-out: apparent I.C. 50, concentration of the inhibitor to inhibit 50% of the sulfatase activity in the MDA-MB-231 cells
T1 construct: host or cells: MDA-MB-231
T1 sequence (P08842 22-583): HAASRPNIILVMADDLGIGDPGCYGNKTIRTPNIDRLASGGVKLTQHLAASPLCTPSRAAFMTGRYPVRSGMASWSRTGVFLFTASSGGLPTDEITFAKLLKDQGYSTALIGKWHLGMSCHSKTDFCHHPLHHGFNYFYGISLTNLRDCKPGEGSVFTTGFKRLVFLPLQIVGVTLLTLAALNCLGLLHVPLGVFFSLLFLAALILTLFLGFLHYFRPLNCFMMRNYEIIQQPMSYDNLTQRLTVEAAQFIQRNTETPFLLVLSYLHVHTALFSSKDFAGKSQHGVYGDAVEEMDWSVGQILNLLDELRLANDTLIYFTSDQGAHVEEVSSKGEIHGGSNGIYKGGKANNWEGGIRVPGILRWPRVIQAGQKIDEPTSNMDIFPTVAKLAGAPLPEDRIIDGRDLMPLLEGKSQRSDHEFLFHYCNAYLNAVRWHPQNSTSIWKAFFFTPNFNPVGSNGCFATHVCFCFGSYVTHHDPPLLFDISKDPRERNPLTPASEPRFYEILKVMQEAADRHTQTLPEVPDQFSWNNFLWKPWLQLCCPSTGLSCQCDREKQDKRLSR
Method: The in vitro sulfatase assay on intact cells involved a modification of the procedure of Duncan et al. ["Inhibition of estrone sulfatase activity by estrone 3-methylthiophosphonate", Cancer Res., Vol. 53, pp. 298-303 (1993)]. Intact nearly confluent monolayers of MDA-MB-231 (American Type Culture Collection) breast cancer cells in 6-well tissue-culture plates were washed with Hank's balanced salt solution (HBSS) and incubated for 18 hours at 37° C. with [^3 H]E1 S (5 pmol, 7×10^5 dpm) in serum-free Minimal Essential Medium (MEM) (2.5 ml) with or without test compounds (0.01 nM to 10 μM). After incubation, each dish was cooled and aliquots of the medium (0.5 ml) were pipetted into separate tubes containing 3 ml toluene. The mixture was shaken vigorously for 30 seconds and then centrifuged for 3 minutes at 2500 x g. Previous experiments have shown that >90% of estrone (E1) and <0.1% of […] (E1 S) is removed from the aqueous phase by this treatment. […] Radioactivity was determined using a Packard TriCarb scintillation counter with 50% efficiency for ^3 H. Each batch of experiments included dishes without cells (to assess apparent non-enzymatic hydrolysis of the substrate). […] Estrone sulfatase activity was determined from the amount of ^3 H-E1 tritiated estrone and ^3 H-E2 triated estradiol formed. […]

[2] = rat, in vivo

IC50 [1] [nM] | Structure (SMILES) | estrogenicity in uterine weight gain assay [2]
1 to 2 | CCCCCCCCCCCC(=O)NCCc1ccc(OS(N)(=O)=O)cc1 [N-lauroyl-(p-o-sulfamoyl) tyramine (C12), N-lauroyl-(p-o-sulfamoyl) tyramine] | 
 | C[C@]12CC[C@@H]3c4ccc(OS(N)(=O)=O)cc4CC[C@H]3[C@@H]1CCC2=O [estrone 3-0 sulfamate] | estrogenic
